We go through 14 compounds from patent US6303619A, “Meta-substituted acidic 8-phenylxanthine antagonists of A3 human adenosine receptors” (priority 1998, dated 2001).

Assay [1] concerns receptor exhibiting an agonist pharmacological profile thought to be characteristic of the rat A3 subtype. Conditions: angiotensin II-supported pithed rat; cited from earlier work.
The target in assay [2] is T1, human A3 adenosine receptor (Homo sapiens, UniProt P0DMS8).
T1 construct: clone HS-21a contained the complete open reading frame corresponding to the human homolog of the rat A3 adenosine receptor; expressed in transfected cells; host or cells: CHO cells stably transfected with HS-21a cDNA
T1 sequence (P0DMS8 1-318): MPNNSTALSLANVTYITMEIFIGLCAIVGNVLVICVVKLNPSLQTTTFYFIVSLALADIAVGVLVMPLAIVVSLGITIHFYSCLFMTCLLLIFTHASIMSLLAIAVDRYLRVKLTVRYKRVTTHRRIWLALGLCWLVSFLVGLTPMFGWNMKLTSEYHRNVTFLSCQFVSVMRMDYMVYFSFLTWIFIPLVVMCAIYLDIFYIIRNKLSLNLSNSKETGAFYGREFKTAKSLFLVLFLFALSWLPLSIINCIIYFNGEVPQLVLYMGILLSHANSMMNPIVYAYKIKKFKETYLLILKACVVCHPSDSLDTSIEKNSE
Particulars: cited from earlier work.

The test system of assay [3] is sheep A3 adenosine receptor. Conditions: cited from earlier work.
Assay [4] relates to A1 adenosine receptor. Particulars: cited from earlier work.
Assay [5] relates to A2A adenosine receptor. Particulars: cited from earlier work.
Assay [6] has as its system A2B adenosine receptor. Conditions: cited from earlier work.
For assay [7], the system named is sheep A3 adenosine receptor. Conditions: cited from earlier work. This is another data set of the same source.
The target in assay [8] is T1, human A3 adenosine receptor. Nature of the assay: 125I-ABA binding to membranes of stably transfected CHO cells expressing the human A3 adenosine receptor (HS-21a). Conditions: for potency order of antagonists / potency order of agonists: order in words/symbols. How it is done: Membranes were prepared from transiently transfected COS7 cells […] after transfection or from G418-selected stably transfected CHO or HEK 293 cells. Cells were harvested in 1 mM EDTA in phosphate buffered saline and centrifuged at 2000×g for 10 minutes. The cell pellet was washed once with phosphate buffered saline. The cell pellet was resuspended in 2 mL of 5 mM Tris, pH 7.6/5mM MgCl2. Membranes were prepared from the cells by freeze-thaw lysis in which the suspension was frozen in a dry ice/ethanol bath and thawed at 25° C. twice. The suspension was homogenized after adding an additional 2 mL of 5 mM Tris, pH 7.6/5 mM MgCl2, in a glass dounce homogenizer with 20 strokes. The membranes were pelleted at 40,000×g at 4° C. for 20 minutes. The membrane pellet was resuspended at a protein concentration of 1-2 mg/mL in binding assay buffer, 50 mM Tris, pH 7.6/10 mM MgCl2. Protein concentration was determined by the method of Bradford ((1976) Anal. Biochem. 72: 248-250). […] Saturation binding of [^125 I]-N^6 -aminiobenizyladenosine (125I-ABA) or [^125 I]-N^6 -2-(4-amino-3-iodophenyl)ethyladenosine (APNEA) was performed on membranes prepared from pSVLA3 transfected COS7 cells. Membranes (100 μg) were incubated in the presence of 0.2 U/mL adenosine deaminase with increasing concentrations of ^125 I-ABA in the range of 0.1-30 nM for 120 minutes at 25° C. in a total volume of 500 μl. The binding assay was terminated by rapid filtration and three washes with ice-cold 50 mM Tris, pH 7.6/10 mM MgCl2 on a Skatron cell harvester equipped with a receptor binding flitermat (SKATRON INSTRUMENTS, INC). Non-specific binding was determined on non-transfected cells. Bound radioactivity was measured by scintillation counting in Ready Safe Scintillation Cocktail (BECKMAN).
The 1.7 kb HS-21a cDNA (A3) was subcloned as a SalI-BamHl fragment into the expression vector pCMV5 (Mumby, S. M., Heukeroth, R. O., Gordon, J. I. and Gilman, A. G. (1990) Proc. Natl. Acad. Sci. USA 87, 728-732.) creating the vector pCMV5-A3. CHO or HEK 293 cells stably expressing the human HS-21 a cDNA were prepared by co-transfection of 15 μg pCMV5-A3 and 1 μg pWLneo (Stratagene) using the calcium phosphate method. Stable cell lines were also generated using EBV based mammalian expression vectors, pREP (INVITROGEN). Neomycin resistant colonies were selected in 1 mg/mL G418 (GIBCO). Stable colonies were screened for expression of HS-21a by ^125 I-ABA binding.
Membranes were prepared from stable CHO cell lines in 10 mM Hepes, pH 7.4 containing 0.1 mM benzamidine and 0.1 mM PMSF as described (Mahan, L. C. et al., (1991) Mol. Pharinacol. 40, 1-7). Pellets were resuspended in 5 mM Hepes, pH 7.4/5 mM MgCl2 /0.1 mM benzarnidine/0.1 mM PMSF at a protein concentration of 1-2 mg/mL and were incubated with adenosine deaminase (Boehringer Mannheim), 2 U/mL at 37° C. for 20 minutes. Saturation binding of ^125 I-ABA was carried out on 50 μg of membranes for 120 minutes at 25° C. in a total volume of 100 μl. The assay was terminated by rapid filtration and three washes with ice-cold binding buffer on a Skatron harvester equipped with a receptor binding filtermat (Skatron Instruments, Inc.). The specific activity of ^125 I-ABA, initially 2,200 Ci/mmol, was reduced to 100 Ci/mmol with nonradioactive I-ABA for saturation analysis. Nonspecific binding was measured in the presence of 1 uM I-ABA. The KD and Bmax values were calculated by the EBDA program (McPherson, G. A. (1983) Computer Programs for Biomedicine 17, 107-114). Competition binding of agonists and antagonists was determined with ^125 I-ABA (0.17-2.0 nM, 2000 Ci/mmol). […] Binding data were analyzed and competition curves were constructed by use of the nonlinear regression curve fitting program Graph PAD InPlot, Version 3.0 (Graph Pad Software, San Diego).

Assay [9] has as its system rat A3 adenosine receptor. Particulars: cited from earlier work.
Assay [10] addresses T1, human A3 adenosine receptor. Kind of assay: inhibition of forskolin-stimulated cAMP accumulation in stably transfected CHO cells expressing the human A3 receptor. In kind it is cell-based. Conditions: stably transfected CHO cells, human A3. How it is done: The human A3 adenosine receptor from a striatal cDNA library can be cloned using a probe derived from the homologous rat sequence.
cAMP Accumulation in Stable CHO Cell Lines
The changes in cAMP accumulation can alternatively be measured in stably transfected CHO cells expressing the human adenosine receptor subtypes. CHO cells are washed twice in phosphate buffered saline (PBS) and detached in 0.2% EDTA in PBS. The cells are pelleted at 800 rpm for 10 min and resuspended in KRH buffer (140 mM NaCl/5 mM KCl/2 mM CaCl2 /1.2 mM MgSO4 /1.2 mM KH2 PO4 /6 mM glucose/25 mM Hepes buffer, pH 7.4). The cells are washed once in KRH buffer and resuspended at 10^7 cells/mL. The cell suspension (100 μl) is mixed with 100 μl of KRH buffer containing 200 uM Ro 20-1724 and incubated at 37° C. for 10 minutes. Adenosine (10 uM) was added in 200 μl KRH buffer containing 200 uM Ro 20-1724 and incubated at 37° C. for 20 minutes. After the incubation, 400 μl of 0.5 mM NaOAc (pH 6.2) was added and the sample was boiled for 20 minutes. The supernatant was recovered by centrifugation for 15 minutes and stored at -70° C. cAMP levels were determined by radiommunoassay (RIANEN kit, DuPont/NEN) using the to acetylation protocol. The effect of antagonists on cAMP accumulation are measured by preincubation for 20 minutes before adding adenosine.

Assay [11] concerns rat A3 adenosine receptor. Conditions: cited from earlier work. This is another data set of the same source.
The test system of assay [12] is A3 adenosine receptor. Conditions: animal model; Jin et al. 1997; cited from earlier work.
In assay [13] the test system is asthmatics. Conditions: cited from earlier work.

Each structure is given as a SMILES string. “Also recorded” adds a separate entry of the source.

Regarding `Cn1c(=O)c2[nH]c(-c3ccc(S(=O)(=O)O)cc3)nc2n(C)c1=O` [8-(para-sulfophenyl)theophylline], the “sensitivity of hypotension to blockade” value in [1] is “insensitive to blockade”. Further, in assay [2], the “blockade of human A3 receptor” value is reported as “blocks”. Moreover, the “blockade of sheep A3 receptor” value in [3] is “blocks”. In addition, the “action on A1 subtype” value in assay [4] was “broad action”. Also, in assay [5], the “action on A2A subtype” value is listed as “broad action”. In addition, in assay [6], the “action on A2B subtype” value is “broad action”.

On to `Nc1ccc(CCNc2ncnc3c2ncn3[C@@H]2O[C@H](CO)[C@@H](O)[C@H]2O)cc1I` [APNEA, N^6-2-(4-amino-3-iodophenyl)ethyladenosine], for which the agonist affinity order result in [7] is listed as “I-ABA>APNEA>NECA≥R-PIA>>CPA”.

As for `CCCn1c(=O)c2[nH]c(-c3ccc(C=CC(=O)O)cc3)nc2n(CCC)c1=O` [BW-A1433, 1,3-dipropyl-8-(4-acrylate) phenylxanthine], in assay [8] (human A3), the “potency order of antagonists” value was “I-ABOPX>1,3-dipropyl-8-(4-acrylate) phenylxanthine (BW-A1433)≥xanthine amino cogener (XAC)>>1,3-dipropyl-8-cyclopentylxanthine (DPCPX)”.

`CCNC(=O)[C@H]1O[C@@H](n2cnc3c(N)nc(NCCc4ccc(CCC(=O)O)cc4)nc32)[C@H](O)[C@@H]1O` [CGS21680]: the “potency order for inhibition of cyclic AMP accumulation” value (“potency order for inhibition” below) in [9] was “NECA=R-PIA>CGS21680”.

In the case of `OC[C@H]1O[C@@H](n2cnc3c(NC4CCCC4)ncnc32)[C@H](O)[C@@H]1O` [CPA, N^6 -cyclopentyladenosine], the Ki in assay [8] (competition with 125I-ABA (FIG. 3a), read-out: Ki, agonists) turned out to be 0.089 µM. In addition, in [8] (human A3), the “potency order of agonists” value is reported as “N-ethylcarboxamidoadenosine (NECA)≥R-phenylisopropyladenosine(R-PIA)>N^6 -cyclopentyladenosine (CPA)>S-p-benylisopropyladenosine (S-PIA); also recorded: NECA>R-PIA>CPA>S-PLA”. Further, in assay [10], the “inhibition of forskolin-stimulated cAMP accumulation” value is listed as 30-40%. The agonist affinity order result in assay [7] is “I-ABA>APNEA>NECA≥R-PIA>>CPA”.

As to `CCCn1c(=O)c2[nH]c(C3CCCC3)nc2n(CCC)c1=O` [DPCPX, 1,3-dipropyl-8-cyclopentylxanthine], in assay [8] (human A3), the “potency order of antagonists” value is “I-ABOPX>1,3-dipropyl-8-(4-acrylate) phenylxanthine (BW-A1433)≥xanthine amino cogener (XAC)>>1,3-dipropyl-8-cyclopentylxanthine (DPCPX)”. Further, the “binding to rat A3 receptor” value in [11] is reported as “not to bind”.

As for `CCCn1c(=O)c2[nH]c(-c3ccc(OCC(=O)O)cc3)nc2n(Cc2ccc(N)c(I)c2)c1=O` [I-ABOPX], in assay [8] (human A3), the “A3 antagonist affinity in words” value is listed as “highest affinity para-substituted antagonist yet reported for A3 adenosine receptors” and the “potency order of antagonists” value was “I-ABOPX>1,3-dipropyl-8-(4-acrylate) phenylxanthine (BW-A1433)≥xanthine amino cogener (XAC)>>1,3-dipropyl-8-cyclopentylxanthine (DPCPX)”.

Turning to `CCNC(=O)[C@H]1O[C@@H](n2cnc3c(N)ncnc32)[C@H](O)[C@@H]1O` [NECA, N-ethylcarboxamidoadenosine], the “prevention of specific binding of 125I-ABA” value in assay [8] (400 uM NECA) is recorded as “prevented”. The “potency order of agonists” value in [8] (human A3) is “N-ethylcarboxamidoadenosine (NECA)≥R-phenylisopropyladenosine(R-PIA)>N^6 -cyclopentyladenosine (CPA)>S-p-benylisopropyladenosine (S-PIA); also recorded: NECA>R-PIA>CPA>S-PLA”. In [10], the “inhibition of forskolin-stimulated cAMP accumulation” value is 30-40%. Besides, in assay [9], the “potency order for inhibition” value was “NECA=R-PIA>CGS21680”. Also, in assay [7], the agonist affinity order result was “I-ABA>APNEA>NECA≥R-PIA>>CPA”.

`C[C@H](Cc1ccccc1)Nc1ncnc2c1ncn2[C@@H]1O[C@H](CO)[C@@H](O)[C@H]1O` [R-PIA]: the “potency order of agonists” value in assay [8] (human A3) is “N-ethylcarboxamidoadenosine (NECA)≥R-phenylisopropyladenosine(R-PIA)>N^6 -cyclopentyladenosine (CPA)>S-p-benylisopropyladenosine (S-PIA); also recorded: NECA>R-PIA>CPA>S-PLA”. Moreover, the “inhibition of forskolin-stimulated cAMP accumulation” value in [10] was 30-40%. Further, the “potency order for inhibition” value in assay [9] is listed as “NECA=R-PIA>CGS21680”. Also, the agonist affinity order result in [7] is given as “I-ABA>APNEA>NECA≥R-PIA>>CPA”.

With `C[C@@H](Cc1ccccc1)Nc1ncnc2c1ncn2[C@@H]1O[C@H](CO)[C@@H](O)[C@H]1O` [S-PIA, (R,S)-N^6-phenyl-2-propyladenosine], in [8] (human A3), the “potency order of agonists” value is recorded as “N-ethylcarboxamidoadenosine (NECA)≥R-phenylisopropyladenosine(R-PIA)>N^6 -cyclopentyladenosine (CPA)>S-p-benylisopropyladenosine (S-PIA); also recorded: NECA>R-PIA>CPA>S-PLA”. Moreover, the “inhibition of forskolin-stimulated cAMP accumulation” value in assay [10] is 30-40%.

For `CCCn1c(=O)c2[nH]c(-c3ccc(OCC(=O)NCCN)cc3)nc2n(CCC)c1=O` [XAC], in [11], the “binding to rat A3 receptor” value was “not to bind”.

As to `Nc1ccc(CCNc2ncnc3c2ncn3[C@@H]2O[C@H](CO)[C@@H](O)[C@H]2O)cc1[125I]` [^125 I-APNEA, N^6-2-(4-amino-3^125 iodophenyl)ethyladenosine], in assay [8] (125I-APNEA, preliminary experiments), the “non-specific binding to CHO cell membranes” value was “high non-specific”. In addition, the “binding to rat A3 receptor” value in assay [11] was “bind”.

Take `OC[C@H]1O[C@@H](n2cnc3c(O)ncnc32)[C@H](O)[C@@H]1O` [inosine]: the “induction of mast cell degranulation” value in assay [12] is given as “induce mast cell degranulation”.

For `Cn1c(=O)c2[nH]cnc2n(C)c1=O` [theophylline], the “antagonism of adenosine-induced bronchoconstriction” value in assay [13] was “antagonized”.
